This assay addresses T1, oxysterol-binding protein (OSBP) (Homo sapiens, UniProt P22059).
T1 sequence (P22059 2-807): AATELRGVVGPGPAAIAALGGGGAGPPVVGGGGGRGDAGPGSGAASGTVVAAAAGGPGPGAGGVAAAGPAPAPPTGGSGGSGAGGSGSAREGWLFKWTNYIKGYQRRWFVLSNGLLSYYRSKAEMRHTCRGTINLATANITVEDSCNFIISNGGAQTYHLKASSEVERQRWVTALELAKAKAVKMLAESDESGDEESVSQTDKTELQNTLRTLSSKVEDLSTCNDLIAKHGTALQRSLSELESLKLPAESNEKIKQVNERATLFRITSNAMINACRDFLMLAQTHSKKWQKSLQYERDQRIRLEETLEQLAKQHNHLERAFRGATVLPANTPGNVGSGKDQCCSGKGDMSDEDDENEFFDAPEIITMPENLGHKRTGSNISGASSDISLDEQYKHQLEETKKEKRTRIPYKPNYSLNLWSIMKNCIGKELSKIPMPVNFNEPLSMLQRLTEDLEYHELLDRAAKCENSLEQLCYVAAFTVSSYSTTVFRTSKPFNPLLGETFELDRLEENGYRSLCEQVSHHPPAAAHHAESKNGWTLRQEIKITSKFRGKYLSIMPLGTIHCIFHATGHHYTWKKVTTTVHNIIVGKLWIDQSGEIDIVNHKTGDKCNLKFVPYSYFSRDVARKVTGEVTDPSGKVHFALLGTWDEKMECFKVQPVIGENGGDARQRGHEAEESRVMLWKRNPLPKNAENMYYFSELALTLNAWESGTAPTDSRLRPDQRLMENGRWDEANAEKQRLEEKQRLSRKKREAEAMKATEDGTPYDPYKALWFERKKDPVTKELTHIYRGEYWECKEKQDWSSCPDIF
Nature of the assay: MicroScale Thermophoresis with purified GFP-OSBP.

A word on the Kd: it is the equilibrium constant for the complex coming apart. Consider `CCC(C)n1ncn(-c2ccc(N3CCN(c4ccc(OCC5COC(Cn6cncn6)(c6ccc(Cl)cc6Cl)O5)cc4)CC3)cc2)c1=O` (stereo not shown) [ITZ, itraconazole], for which the dissociation constant Kd is roughly 430 nM.

For the origin of these results see paper PMC4383725 (Cell reports, 2015).
